In one assay the target is T1, efflux protein (Escherichia coli, UniProt P02980).
T1 sequence (P02980 1-401): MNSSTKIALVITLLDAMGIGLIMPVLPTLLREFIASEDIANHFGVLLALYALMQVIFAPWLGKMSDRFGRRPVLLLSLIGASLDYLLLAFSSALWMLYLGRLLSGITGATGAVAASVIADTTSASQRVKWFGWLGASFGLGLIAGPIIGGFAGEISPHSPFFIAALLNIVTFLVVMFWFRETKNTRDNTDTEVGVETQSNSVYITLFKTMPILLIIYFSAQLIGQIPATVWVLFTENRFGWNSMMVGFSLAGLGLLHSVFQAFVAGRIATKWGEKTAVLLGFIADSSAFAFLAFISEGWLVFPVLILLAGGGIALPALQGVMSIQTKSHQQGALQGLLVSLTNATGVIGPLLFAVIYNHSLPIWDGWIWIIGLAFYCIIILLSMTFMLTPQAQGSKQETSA
Kind of assay: everted membrane vesicle assay, blocking activity of 13-S-derivatives. It counts as biochemical. The following applies: blocking activity against the efflux protein, everted membrane vesicle assay.

Assay [1] relates to E. coli Class A Tc^r (DI-299). It counts as cell-based. The following applies: drug alone; for MLC: kills 99.9%.
In assay [2] the test system is E. coli Tc^s (MI 308-226). Kind of assay: susceptibility testing MIC/MLC, drug alone. Format: cell-based. The following applies: for MLC: kills 99.9%.
Assay [3] deals with E. faecalis Tc^s (ATCC9790r). Kind of assay: susceptibility testing MIC/MLC, drug alone. Format: cell-based.
Assay [4] relates to E. faecalis Tc^r (L) ATCC9790r/Tell.). The assay can be described thus: susceptibility testing MIC/MLC, drug alone. It counts as cell-based. Particulars: Tc^r (L) ATCC9790r/Tell.), drug alone.
Assay [5] relates to E. coli Class B Tc^r (DI-209). It counts as cell-based. The following applies: drug alone; for MLC: kills 99.9%.
Assay [6] deals with tetracycline resistant (Class A) E. coli (strain D1-299). The following applies: in combination with tetracycline.
Assay [7] concerns E. faecalis Tc^r(M) (ATCC09790r/TelM). Format: cell-based. The following applies: drug alone.

Converted amounts (≈) assume the structure as drawn.

`CCCCCCCCCCSCC1c2cccc(O)c2C(=O)C2=C(O)C3(O)C(=O)C(C(N)=O)=C(O)C(N(C)C)C3C(O)C21` (stereo not drawn) [Decyl] showed a Ki on efflux protein of 8.0 µg/mL.

For the compound `Cc1ccc(CSCC2c3cccc(O)c3C(=O)C3=C(O)C4(O)C(=O)C(C(N)=O)=C(O)C(N(C)C)C4C(O)C32)cc1` (stereo not drawn) [p-Me-Benzyl], the Ki at efflux protein was determined as 1.2 µg/mL.

On to `CC(C)SCC1c2cccc(O)c2C(=O)C2=C(O)C3(O)C(=O)C(C(N)=O)=C(O)C(N(C)C)C3C(O)C21` (stereo not drawn) [Isopropyl], for which the MIC in assay [1] turned out to be 45 ± 6 µg; in assay [2] (Tc^s (MI 308-226), drug alone), 22 ± 2 µg; in assay [3] it was 3 ± 1 µg; in assay [4], 3 ± 1 µg; in assay [5], 35 ± 6 µg. For the same compound, the MLC was 60 µg in assay [1]; 50 µg in assay [2] (Tc^s (MI 308-226), drug alone); 46 ± 16 µg in assay [5]. The compound also showed a Ki on efflux protein of 771 nM.

On to `CCSCC1c2cccc(O)c2C(=O)C2=C(O)C3(O)C(=O)C(C(N)=O)=C(O)C(N(C)C)C3CC21` (stereo not drawn) [Ethyl, 6-deoxy-13-(ethylmercapto) tetracycline], for which the MIC in assay [1] turned out to be 14 ± 4 µg; in assay [2] (Tc^s (MI 308-226), drug alone) it was 5 ± 0.25 µg; in assay [2] (susceptible E. coli) it was 5 µg/mL (≈ 10.2 µM); in assay [7] it was 25 ± 5 µg; in assay [3] it was 1 ± 0.5 µg; in assay [4] it was 4 ± 1 µg. The MIC in assay [5] amounted to 36 ± 16 µg. In addition, the MLC in assay [1] turned out to be 45 ± 5 µg; in assay [2] (Tc^s (MI 308-226), drug alone) it was 50 µg; in assay [5] it was 50 ± 10 µg. Besides, the “concentrations of analogue and tetracycline that inhibited growth” value in assay [6] was at most 5 μg/ml.

`CC(C)CSCC1c2cccc(O)c2C(=O)C2=C(O)C3(O)C(=O)C(C(N)=O)=C(O)C(N(C)C)C3C(O)C21` (stereo not drawn) [Isobutyl] showed a Ki on efflux protein of 188 nM.

`CN(C)C1C(O)=C(C(N)=O)C(=O)C2(O)C(O)=C3C(=O)c4c(O)cccc4C(CSCc4ccc(Cl)cc4)C3C(O)C12` (stereo not drawn) [p-Cl-Benzyl] displayed an inhibition constant Ki on efflux protein of 1.5 µg/mL.
